Assay results published in the NIST ThermoML archive (doi:10.1021/acs.jced.6b00497).
± gives the expanded uncertainty stated by the source.

Settings: Crystal; DTA

In the case of O=C(O)c1cc(N=Nc2ccc(S(=O)(=O)Nc3ccccn3)cc2)ccc1O [Sulfasalazine], the Normal melting temperature is reported as 220.00 ± 1 °C.
